Results reported in patent US20260356860A1, “2-SUBSTITUTED 3,4A,5,7,8,8A-HEXAHYDRO-4H-THIOPYRANO[4,3-DJPYRIMIDIN-4-ONES FOR WOUND TREATMENT” (priority 2022, published 2026).

Tests used:
Assay type in all cases: cell-based
bacteria = assay: Bacteriostasis: growth inhibition over the panel of bacteria; settings: 72 h
Method: (§1) In order to assess the log reduction capabilities of compounds of Formula (1), testing was performed on organisms that are found in acute and chronic wounds. Triplicate tubes were prepared for each bacteria using 50 μL of inoculum (about 1×10^6 CFU/mL) which was added to 450 μL of compound solution (compound of Formula (I)) (or 100 μL of inoculum in 900 μL of compound solution), resulting in a final inoculum of about 1×10^5 CFU/mL, as shown in Table 4.
(§2) Tubes were mixed with a vortex and then incubated in a shaking incubator at 175 RPM and 35° C. to 37° C.
(§3) For Compounds 1, 7, 8, 10, and 18 in Tables 6, 7-A, 7-B, 8, 9, 10-A, 10-B, and 11: The compound solutions were prepared with compound (30 mg), polysorbate 20 (1.6 mL), butylene glycol (1.6 mL), phosphatidyl choline (0.66 g), ethanol (1.6 mL), hydroxypropyl cellulose (0.26 g), and ultra pure water (24.9 mL).
(§4) Testing was performed at two time points: 18 to 24 hours, and […].

[1] = tested on: S. epidermidis (derived from ATCC ® 14990 ™); assay: Bacteriostasis, log reduction; settings: S. epidermidis ATCC 14990
Method: as §1, §2
(§5) Positive control in Tables 5a and 5b was 1 mL of 0.89% saline with 1 mL of the 1×10^6 CFU/mL of the organism.
as §3
(§6) XAV939 Control in Table X1 was XAV939 (30 mg), polysorbate 20 (1.6 mL), butylene glycol (1.6 mL), phosphatidyl choline (0.66 g), ethanol (1.6 mL), ultra pure water (24.9 mL), and hydroxypropyl cellulose (0.26 g).
(§7) GO-HA Control in Table X2 was GO-HA (30 mg), polysorbate 20 (1.6 mL), butylene glycol (1.6 mL), phosphatidyl choline (0.66 g), ethanol (1.6 mL), ultra pure water (24.9 mL), and hydroxypropyl cellulose (0.26 g).
(§8) For Compound 18+GO-HA in Tables 6 and X4: compound 18 (45 mg), GO-HA (45 mg), polysorbate 20 (2 mL), butylene glycol (2 mL), phosphotidyl choline (0.5 g), ethanol (2 mL), hydroxypropyl cellulose (0.40 g), and ultra pure water (40 mL).
(§9) For XAV939+GO-HA in Tables 6 and X3-A, and X3-B: XAV939 (45 mg), GO-HA (45 mg), butylene glycol (2 mL), polysorbate 20 (2 mL), phosphotidyl choline (0.5 g), ethanol (2 mL), hydroxypropyl cellulose (0.40 g), and ultra pure water (40 mL).
as §4

[2] = tested on: P. aeruginosa (derived from ATCC ® 15442 ™); assay: Bacteriostasis, log reduction; settings: P. aeruginosa ATCC 15442
Method: as §1, §2, §5, §3, §6, §7, §8, §9, §4

[3] = tested on: E. faecalis (derived from ATCC ® 19433 ™); assay: Bacteriostasis, log reduction; settings: E. faecalis ATCC 19433
Method: as §1, §2, §5, §3, §6, §7, §8, §9, §4

[4] = tested on: E. coli (derived from ATCC ® 25922 ™); assay: Bacteriostasis, log reduction; settings: E. coli ATCC 25922
Method: as §1, §2, §5, §3, §6, §7, §8, §9, §4

[5] = tested on: E. coli (derived from ATCC ® 8739 ™); assay: Bacteriostasis, log reduction; settings: E. coli ATCC 8739
Method: as §1, §2, §5, §3, §6, §7, §8, §9, §4

[6] = tested on: S. aureus (derived from ATCC ® 6538 ™); assay: Bacteriostasis, log reduction; settings: S. aureus ATCC 6538
Method: as §1, §2, §5, §3, §6, §7, §8, §9, §4

[7] = tested on: E. coli 0157:H7 (derived from ATCC ® 12900 ™); assay: Bacteriostasis, log reduction; settings: E. coli 0157:H7 ATCC 12900
Method: as §1, §2, §5, §3, §6, §7, §8, §9, §4

[8] = tested on: P. vulgaris (derived from ATCC ® 8427 ™); assay: Bacteriostasis, log reduction; settings: P. vulgaris ATCC 8427
Method: as §1, §2, §5, §3, §6, §7, §8, §9, §4

[9] = tested on: P. aeruginosa (derived from ATCC ® 9027 ™); assay: Bacteriostasis, log reduction; settings: P. aeruginosa ATCC 9027
Method: as §1, §2, §5, §3, §6, §7, §8, §9, §4

[10] = tested on: K. pneumoniae (derived from ATCC ® 10031 ™); assay: Bacteriostasis, log reduction; settings: K. pneumoniae ATCC 10031
Method: as §1, §2, §5, §3, §6, §7, §8, §9, §4

[11] = tested on: S. maltophilia (derived from ATCC ® 13637 ™); assay: Bacteriostasis, log reduction; settings: S. maltophilia ATCC 13637
Method: as §1, §2, §5, §3, §6, §7, §8, §9, §4

SMILES: CC(C)(OCCO)c1ccc(-c2nc3c(c(=O)[nH]2)CSCC3)cc1 [Compound 8, 2-(4-(2-(2-hydroxyethoxy)propan-2-yl)phenyl)-3,5,7,8-tetrahydro-4H-thiopyrano[4,3-d]pyrimidin-4-one]
- number of bacteria with inhibited growth (bacteria): 5 of 7
- Average result ([1]; 24 h): 6.0 × 10^2
- Log Reduction ([1]; 24 h): 2.0
- Log Value ([1]; 24 h): 2.8
- Average result ([1]; 72 h): <200
- Log Reduction ([1]; 72 h): >2.5
- Log Value ([1]; 72 h): <2.3
- Average result ([2]; 24 h): 7.3 × 10^2
- Log Reduction ([2]; 24 h): 2.5
- Log Value ([2]; 24 h): 2.9
- Average result ([2]; 72 h): <200
- Log Reduction ([2]; 72 h): >3.1
- Log Value ([2]; 72 h): <2.3
- Average result ([3]; 24 h): 3.4 × 10^5
- Log Reduction ([3]; 24 h): No
- Log Value ([3]; 24 h): 5.5
- Average result ([3]; 72 h): 6.5 × 10^4
- Log Reduction ([3]; 72 h): No
- Log Value ([3]; 72 h): 4.8
- Average result ([4]; 24 h): 200
- Log Reduction ([4]; 24 h): 3.1
- Log Value ([4]; 24 h): 2.3
- Average result ([4]; 72 h): <200
- Log Reduction ([4]; 72 h): >3.1
- Log Value ([4]; 72 h): <2.3
- Average result ([5]; 24 h): 3.1 × 10^3
- Log Reduction ([5]; 24 h): 1.8
- Log Value ([5]; 24 h): 3.5
- Average result ([5]; 72 h): 6.8 × 10^4
- Log Reduction ([5]; 72 h): 0.5
- Log Value ([5]; 72 h): 4.8
- Average result ([6]; 24 h): 5.4 × 10^4
- Log Reduction ([6]; 24 h): 0.6
- Log Value ([6]; 24 h): 4.7
- Average result ([6]; 72 h): <7.4 × 10^3
- Log Reduction ([6]; 72 h): >1.4
- Log Value ([6]; 72 h): <3.9

SMILES: COC(=O)NCCOC(C)(C)c1ccc(-c2nc3c(c(=O)[nH]2)CSCC3)cc1 [Compound 18, methyl (2-((2-(4-(4-oxo-3,5,7,8-tetrahydro-4H-thiopyrano[4,3-d]pyrimidin-2-yl)phenyl)propan-2-yl)oxy)ethyl)carbamate]
- number of bacteria with inhibited growth (bacteria; test 1): 14 of 15
- Average result ([7]; 24 h): <200
- Log Reduction ([7]; 24 h): >1.9
- Log Value ([7]; 24 h): <2.3
- Average result ([7]; 72 h): <200
- Log Reduction ([7]; 72 h): >1.9
- Log Value ([7]; 72 h): <2.3
- Average result ([1]; 24 h): 8.0 × 10^2
- Log Reduction ([1]; 24 h): 2.0
- Log Value ([1]; 24 h): 2.9
- Average result ([1]; 72 h): <200
- Log Reduction ([1]; 72 h): >2.6
- Log Value ([1]; 72 h): <2.3
- Average result ([8]; 24 h): <200
- Log Reduction ([8]; 24 h): >3.6
- Log Value ([8]; 24 h): <2.3
- Average result ([8]; 72 h): <200
- Log Reduction ([8]; 72 h): >3.6
- Log Value ([8]; 72 h): <2.3
- Average result ([2]; 24 h): <200
- Log Reduction ([2]; 24 h): >2.9
- Log Value ([2]; 24 h): <2.3
- Average result ([2]; 72 h): <200
- Log Reduction ([2]; 72 h): >2.9
- Log Value ([2]; 72 h): <2.3
- Average result ([3]; 24 h): 2.7 × 10^5
- Log Reduction ([3]; 24 h): No
- Log Value ([3]; 24 h): 5.4
- Average result ([3]; 72 h): 1.9 × 10^5
- Log Reduction ([3]; 72 h): No
- Log Value ([3]; 72 h): 5.3
- Average result ([9]; 24 h): <200
- Log Reduction ([9]; 24 h): >2.5
- Log Value ([9]; 24 h): <2.3
- Average result ([9]; 72 h): <200
- Log Reduction ([9]; 72 h): >2.5
- Log Value ([9]; 72 h): <2.3
- Average result ([4]; 24 h): <200
- Log Reduction ([4]; 24 h): >2.3
- Log Value ([4]; 24 h): <2.3
- Average result ([4]; 72 h): <200
- Log Reduction ([4]; 72 h): >2.3
- Log Value ([4]; 72 h): <2.3
- Average result ([10]; 24 h): <200
- Log Reduction ([10]; 24 h): >2.5
- Log Value ([10]; 24 h): <2.3
- Average result ([10]; 72 h): <200
- Log Reduction ([10]; 72 h): >2.5
- Log Value ([10]; 72 h): <2.3
- Average result ([5]; 24 h): 5.3 × 10^2
- Log Reduction ([5]; 24 h): 1.8
- Log Value ([5]; 24 h): 2.7
- Average result ([5]; 72 h): <200
- Log Reduction ([5]; 72 h): >2.2
- Log Value ([5]; 72 h): <2.3
- Average result ([6]; 24 h): 4.7 × 10^4
- Log Reduction ([6]; 24 h): 0.5
- Log Value ([6]; 24 h): 4.7
- Average result ([6]; 72 h): 9.3 × 10^2
- Log Reduction ([6]; 72 h): 2.2
- Log Value ([6]; 72 h): 3.0
- Average result ([11]; 24 h): <200
- Log Reduction ([11]; 24 h): >2.8
- Log Value ([11]; 24 h): <2.3
- Average result ([11]; 72 h): <200
- Log Reduction ([11]; 72 h): >2.8
- Log Value ([11]; 72 h): <2.3

SMILES: O=c1[nH]c(-c2ccc(-c3ccc(Br)nc3)cc2)nc2c1CSCC2 [Compound 7, 2-(4-(6-bromopyridin-3-yl)phenyl)-3,5,7,8-tetrahydro-4H-thiopyrano [4,3-d]pyrimidin-4-one]
- number of bacteria with inhibited growth (bacteria): 4 of 7
- Average result ([1]; 24 h): 2.8 × 10^4
- Log Reduction ([1]; 24 h): 0.4
- Log Value ([1]; 24 h): 4.4
- Average result ([1]; 72 h): <200
- Log Reduction ([1]; 72 h): >2.5
- Log Value ([1]; 72 h): <2.3
- Average result ([2]; 24 h): <200
- Log Reduction ([2]; 24 h): >3.1
- Log Value ([2]; 24 h): <2.3
- Average result ([2]; 72 h): <200
- Log Reduction ([2]; 72 h): >3.1
- Log Value ([2]; 72 h): <2.3
- Average result ([3]; 24 h): 9.3 × 10^5
- Log Reduction ([3]; 24 h): No
- Log Value ([3]; 24 h): 6.0
- Average result ([3]; 72 h): 6.9 × 10^5
- Log Reduction ([3]; 72 h): No
- Log Value ([3]; 72 h): 5.8
- Average result ([4]; 24 h): 3.2 × 10^5
- Log Reduction ([4]; 24 h): No
- Log Value ([4]; 24 h): 5.5
- Average result ([4]; 72 h): 2.7 × 10^4
- Log Reduction ([4]; 72 h): 1.0
- Log Value ([4]; 72 h): 4.4
- Average result ([5]; 24 h): 7.9 × 10^4
- Log Reduction ([5]; 24 h): 0.4
- Log Value ([5]; 24 h): 4.9
- Average result ([5]; 72 h): >3.6 × 10^6
- Log Reduction ([5]; 72 h): No
- Log Value ([5]; 72 h): >6.6
- Average result ([6]; 24 h): 7.3 × 10^2
- Log Reduction ([6]; 24 h): 2.4
- Log Value ([6]; 24 h): 2.9
- Average result ([6]; 72 h): <200
- Log Reduction ([6]; 72 h): >3.0
- Log Value ([6]; 72 h): <2.3
